Experiments:
[1] = molecular target: T1, Src (Homo sapiens, UniProt P12931); assay: biochemical
Target sequence in this assay (P12931 254-535 limits assumed): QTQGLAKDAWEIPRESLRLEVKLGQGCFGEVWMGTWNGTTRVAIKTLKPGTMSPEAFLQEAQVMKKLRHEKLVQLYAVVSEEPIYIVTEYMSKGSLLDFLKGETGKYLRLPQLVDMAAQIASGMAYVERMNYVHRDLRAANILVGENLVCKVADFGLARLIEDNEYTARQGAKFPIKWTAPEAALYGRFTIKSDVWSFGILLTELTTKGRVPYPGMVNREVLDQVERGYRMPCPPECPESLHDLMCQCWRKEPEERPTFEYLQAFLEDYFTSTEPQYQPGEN

[2] = molecular target: T2, Hck (Homo sapiens, UniProt P08631); assay: biochemical; format: biochemical
Target sequence in this assay (P08631 262-515 limits assumed): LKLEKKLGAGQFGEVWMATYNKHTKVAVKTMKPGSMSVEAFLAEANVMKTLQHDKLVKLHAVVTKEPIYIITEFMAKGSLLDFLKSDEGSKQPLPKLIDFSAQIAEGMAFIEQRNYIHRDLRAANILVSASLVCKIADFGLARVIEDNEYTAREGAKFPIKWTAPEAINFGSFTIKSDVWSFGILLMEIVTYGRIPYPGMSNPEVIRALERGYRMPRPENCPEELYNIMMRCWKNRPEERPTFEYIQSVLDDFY

[3] = molecular target: pY-Hck (Homo sapiens, UniProt P08631); assay: Coupled kinase assay, phosphorylated Hck; format: biochemical; details: 5 μM of 4
[4] = molecular target: pY-Src (Homo sapiens, UniProt P12931); assay: Coupled kinase assay, phosphorylated Src; format: biochemical; details: 5 μM of 4
[5] = molecular target: T3, Abl Y253F (Homo sapiens, UniProt P00519, Y253F); assay: Kinase activity of Abl Y253F mutant; format: biochemical; details: 10 μM
T3 sequence (P00519 229-512 Y253F limits assumed): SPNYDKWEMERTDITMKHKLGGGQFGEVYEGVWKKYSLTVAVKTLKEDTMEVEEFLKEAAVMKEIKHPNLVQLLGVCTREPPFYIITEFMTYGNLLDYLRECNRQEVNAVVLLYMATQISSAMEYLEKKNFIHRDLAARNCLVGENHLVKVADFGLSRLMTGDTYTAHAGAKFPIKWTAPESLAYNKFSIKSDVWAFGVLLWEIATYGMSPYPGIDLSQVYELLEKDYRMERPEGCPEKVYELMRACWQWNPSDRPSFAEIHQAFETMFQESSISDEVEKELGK

[6] = molecular target: T2, Hck; assay: biochemical; format: binding
Target sequence in this assay (P08631 247-526 limits assumed): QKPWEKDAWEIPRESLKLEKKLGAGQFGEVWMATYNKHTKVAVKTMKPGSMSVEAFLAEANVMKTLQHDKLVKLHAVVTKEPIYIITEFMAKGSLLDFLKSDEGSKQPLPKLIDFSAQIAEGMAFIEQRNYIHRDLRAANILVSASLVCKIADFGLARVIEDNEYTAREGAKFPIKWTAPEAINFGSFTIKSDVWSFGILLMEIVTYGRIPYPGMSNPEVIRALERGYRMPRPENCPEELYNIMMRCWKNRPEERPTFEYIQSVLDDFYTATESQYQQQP

[7] = molecular target: T3, Abl Y253F; assay: Stop-flow tryptophan fluorescence binding kinetics, Abl Y253F
[8] = molecular target: T4, DYRK2 (Homo sapiens, UniProt Q92630); assay: Stop-flow tryptophan fluorescence binding kinetics, DYRK2; details: tryptophan fluorescence transient
T4 sequence (Q92630 146-540): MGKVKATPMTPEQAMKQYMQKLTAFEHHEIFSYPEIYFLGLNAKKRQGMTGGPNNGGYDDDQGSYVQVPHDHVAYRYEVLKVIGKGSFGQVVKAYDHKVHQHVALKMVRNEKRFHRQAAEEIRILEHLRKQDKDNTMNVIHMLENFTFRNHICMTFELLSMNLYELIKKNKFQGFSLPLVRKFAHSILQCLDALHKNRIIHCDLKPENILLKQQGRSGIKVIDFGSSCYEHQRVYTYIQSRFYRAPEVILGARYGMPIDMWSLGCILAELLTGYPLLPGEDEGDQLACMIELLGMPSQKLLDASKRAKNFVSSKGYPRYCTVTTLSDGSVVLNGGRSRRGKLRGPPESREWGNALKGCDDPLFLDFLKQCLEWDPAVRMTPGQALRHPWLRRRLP

[9] = molecular target: T2, Hck; format: biochemical
Target sequence in this assay (P08631 247-526 limits assumed): as the sequence (P08631 247-526 limits assumed) above

[10] = molecular target: T1, Src; format: biochemical
Target sequence in this assay (P12931 254-535 limits assumed): as the sequence (P12931 254-535 limits assumed) above

[11] = tested on: MDA-MB-231; assay: Cytotoxicity by MTT assay, MDA-MB-231; format: cell-based; details: for IC50: Homo sapiens, MDA-MB-231, read-out: IC50 dose; for IC10 dose: MDA-MB-231, value used as dose in wound-healing assay
[12] = tested on: HEK 293T; assay: Cytotoxicity by MTT assay, HEK 293T; format: cell-based; details: Homo sapiens, 48 h, read-out: IC50 value HEK 293T
[13] = tested on: MDA-MB-231 cells; assay: Stability of the compound in cells by live-cell fluorescence imaging; format: in vitro ADME; details: MDA-MB-231, 10 μM
[14] = Solution stability; format: physicochemical
[15] = Aggregation by dynamic light scattering; format: physicochemical; details: 15 μM in aqueous assay buffer
[16] = molecular target: Src kinase domain (Homo sapiens, UniProt P12931)
[17] = tested on: MDA-MB-231 cells; assay: Plasma membrane integrity, FM4-64-FX live-cell imaging; format: cell-based; details: 15 μM, 6 h
[18] = tested on: MDA-MB-231 cells; assay: Wound-healing assay; format: cell-based; details: IC10 and IC50 dose
[19] = tested on: ERK1/2; assay: ERK1/2 nuclear translocation, immunofluorescence; format: cell-based; details: MDA-MB-231, 5 μM of 4
[20] = tested on: Bcl-2, Cytochrome C, caspase 3, Bid; assay: Western blot analysis of apoptosis markers; format: cell-based; details: MDA-MB-231, 10 and 20 μM, 12 h
[21] = tested on: RAW 264.7 cells; assay: Intracellular calcium detection; format: cell-based, murine; details: RAW 264.7, 5 μM of 4
[22] = tested on: STAT3; assay: STAT3 nuclear translocation, immunofluorescence; format: cell-based, murine; details: RAW 264.7, 5 μM of 4
[23] = tested on: Src, ERK1/2, and STAT3; assay: Phosphorylation of Src, ERK1/2 and STAT3 in macrophages, immunoprecipitation; format: cell-based, murine; details: RAW 264.7, LPS activated
[24] = molecular target: T1, Src; details: MDA-MB-231
Target sequence in this assay (P12931 whole entry): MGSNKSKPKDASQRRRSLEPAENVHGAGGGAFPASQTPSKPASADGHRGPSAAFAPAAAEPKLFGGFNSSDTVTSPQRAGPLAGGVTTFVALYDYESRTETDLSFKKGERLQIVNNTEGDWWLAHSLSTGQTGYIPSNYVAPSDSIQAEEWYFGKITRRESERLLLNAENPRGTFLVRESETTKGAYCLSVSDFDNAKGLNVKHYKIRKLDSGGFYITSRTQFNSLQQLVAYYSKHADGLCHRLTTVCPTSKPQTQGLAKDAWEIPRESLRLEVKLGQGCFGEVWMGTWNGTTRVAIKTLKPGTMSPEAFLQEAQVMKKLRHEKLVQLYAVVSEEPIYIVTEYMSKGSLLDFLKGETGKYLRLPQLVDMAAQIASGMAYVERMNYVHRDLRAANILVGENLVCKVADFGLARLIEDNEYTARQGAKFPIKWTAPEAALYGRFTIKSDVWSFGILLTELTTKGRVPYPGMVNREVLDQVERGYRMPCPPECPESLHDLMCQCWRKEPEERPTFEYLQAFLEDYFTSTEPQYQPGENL

[25] = tested on: pUC19 plasmid DNA; assay: DNA cross-linking assay; details: 0.1–20 μM, 37 °C, 2 h
[26] = molecular target: T4, DYRK2; assay: Coupled kinase assay, DYRK2; format: biochemical

Sequence of pY-Hck (P08631 166-445): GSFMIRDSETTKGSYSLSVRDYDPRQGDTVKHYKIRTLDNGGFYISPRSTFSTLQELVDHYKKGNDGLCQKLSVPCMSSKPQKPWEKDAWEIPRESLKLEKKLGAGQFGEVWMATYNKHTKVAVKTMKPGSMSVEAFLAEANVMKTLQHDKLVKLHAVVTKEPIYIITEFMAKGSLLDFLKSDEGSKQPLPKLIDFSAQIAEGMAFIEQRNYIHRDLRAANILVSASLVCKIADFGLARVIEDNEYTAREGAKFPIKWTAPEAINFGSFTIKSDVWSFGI
Sequence of Src kinase domain (P12931 254-535 limits assumed): as the sequence (P12931 254-535 limits assumed) above
Sequence of pY-Src (P12931 254-535): as the sequence (P12931 254-535 limits assumed) above

## COc1cc(/C=C/C(=O)C(=Cc2ccc(N(CCCl)CCCl)cc2)C(=O)/C=C/c2ccc(O)c(OC)c2)ccc1O [Compound 4, (1E,6E)-4-(4-(bis(2-chloroethyl)amino)benzylidene)-1,7-bis(4-hydroxy-3-methoxyphenyl)hepta-1,6-diene-3,5-dione]
[1]
  Ki: 460 ± 110 nM
[2]
  Ki: 70 ± 11 nM
[2]; Km for ATP changes, Vmax unchanged
  Mode of inhibition: competitive inhibitor for the ATP-binding site
[3]
  Inhibition of phosphorylated Hck (pY-Hck): does not inhibit
[4]
  Inhibition of phosphorylated Src (pY-Src): does not inhibit
[5]
  Inhibition of Abl Y253F kinase activity: better inhibition compared with imatinib
[6]
  Kd: 50 ± 10 nM
[7]
  Kd: 1300 ± 300 nM
[8]
  Interaction with DYRK2: did not interact
[9]
  Reduction of the rate of autophosphorylation: 500 fold
[10]
  Reduction of the rate of autophosphorylation: 2.5 fold
[11]
  IC50: 1300 nM
  IC10 dose: 100 nM
[12]
  IC50: 24900 ± 1000 nM
[13]; observed for 14 h
  Time for which fluorescence was observed inside the cell: 14 h
[14]; 8:2 v/v of 1x PBS and DMSO-d6, 24 h observed period
  Time stable in solution by 1H NMR: at least 24 h
[14]; kinase assay buffer pH 8.0, 5% DMSO, 1 h
  Stability in the kinase assay buffer: most stable
[15]
  Aggregation in solution (oligomeric state, DLS): did not aggregate
[16]
  Covalent modification of cysteine residues of Src kinase: not covalently modifying
[17]
  Effect on plasma membrane integrity: not affecting the membrane integrity
[18]
  Effect on wound-healing rates: significantly impaired the wound-healing rates
[19]
  Cytosolic fraction of ERK1/2 after TNF-α activation: significantly increased
[20]
  BH3 interacting domain death agonist expression level: does not affect
  Mitochondria-mediated apoptotic pathway (Bcl-2, cytochrome C, Caspase3): activates the mitochondria-mediated apoptotic pathway
[21]
  Ca^2+ release after LPS activation: significant reduction
[22]
  Cytosolic fraction of STAT3 after LPS activation: increased cytosolic fraction of STAT3
[23]
  Phosphorylation of Src, ERK1/2, and STAT3: concentration-dependent reduced phosphorylation
[24]
  Autophosphorylation of Src in the cell: inhibits the autophosphorylation of Src
[25]
  DNA cross-linking: do not cross-link DNA

## COc1cc(/C=C/C(=O)CC(=O)/C=C/c2ccc(O)c(OC)c2)ccc1O [Compound 1, Curcumin, reference compound]
[26]
  Ki: 6 nM
[11]
  IC50: 13000 nM
  IC10 dose: 600 nM
[13]; fluorescence
  Time to degradation inside the cell: ≤ 1 h

Source: PMC7946438 (The Journal of Biological Chemistry, 2021)
